Experimental data as given in patent US20130109703A1, “Combination of a GPR119 Agonist and the DPP-IV Inhibitor Linagliptin for Use in the Treatment of Diabetes and Related Conditions” (Boehringer Ingelheim International GmbH, priority 2010, published 2013).

How the values were obtained:
[1] = system: Zucker Diabetic Fatty (ZDF) rats (ZDF/Crl-Lepr^fa); experiment: Oral glucose tolerance test in overnight fasted 9-weeks old male ZDF rats; format: in vivo, rat; conditions: 1st Example, FIG. 1; single oral dose 30 min before oral glucose load 2 g/kg; Cpd. A 3 mg/kg, Cpd. B 100 mg/kg, combination at the same doses; versus vehicle
Procedure: (§1) According to a first example an oral glucose tolerance test is performed in overnight fasted 9-weeks old male Zucker Diabetic Fatty (ZDF) rats (ZDF/Crl-Lepr^fa). A pre-dose blood sample is obtained by tail bleed. Blood glucose is measured with a glucometer, and the animals are randomized for blood glucose (n=5/group). […] The animals receive an oral glucose load (2 g/kg) 30 min after compound administration. Blood glucose is measured in tail blood 15 min, 30 min, 60 min, and 90 min after the glucose challenge. Glucose excursion is quantified by calculating the reactive glucose AUC. The data are presented as mean±SEM. The two-sided unpaired Student t-test is used for statistical comparison of the control group and the active groups as well as between active groups.

[2] = Excretion route of BI 1356 at therapeutic oral dose levels; format: in vivo
[3] = system: Zucker Diabetic Fatty (ZDF) rats (ZDF/Crl-Lepr^fa); experiment: Oral glucose tolerance test in overnight fasted 15-weeks old male ZDF rats (highly insulin-resistant model); format: in vivo, rat; conditions: single oral dose 30 min before oral glucose load 2 g/kg, Cpd. A 3 mg/kg, combination at the same doses, versus vehicle
Procedure: as §1, with “to a second example an” for “to a first example an”, “overnight fasted 15-weeks old male” for “overnight fasted 9-weeks old male”, “rats (ZDF/Crl-Lepr^fa). This aged ZDF rats serve as a highly insulin-resistant animal model. A pre-dose” for “rats (ZDF/Crl-Lepr^fa). A pre-dose”, “tail blood 30 min,” for “tail blood 15 min, 30 min,”, “60 min, 90 min, 120 min, and 180” for “60 min, and 90”, “min, and 180 min after” for “min, and 90 min after”

- excretion via the kidney [2]: < 7 % of the administered oral dose
SMILES: CC#CCn1c(N2CCC[C@@H](N)C2)nc2c1c(=O)n(Cc1nc(C)c3ccccc3n1)c(=O)n2C [Cpd. A, 1-[(4-methyl-quinazolin-2-yl)methyl]-3-methyl-7-(2-butyn-1-yl)-8-(3-(R)-amino-piperidin-1-yl)-xanthine]
- reduction of glucose excursion (reactive glucose AUC) [1]: 49%
- reduction of glucose excursion (reactive glucose AUC) ([3]; 2nd Example, FIG. 2, Cpd. B 30 mg/kg): 1%
- reduction of glucose excursion (reactive glucose AUC) ([3]; 3rd Example, FIG. 3, Cpd. B 10 mg/kg): 1%
